Assay results reported in the supplement of paper PMC10307832.

Legend:
Test in all cases: relative viability (nuclei count vs DMSO), 5 days (fraction); higher = more cells survive
Everolimus + Trametinib = compound: CO[C@H]1C[C@@H]2CC[C@@H](C)[C@@](O)(O2)C(=O)C(=O)N2CCCC[C@H]2C(=O)O[C@H]([C@H](C)C[C@@H]2CC[C@@H](OCCO)[C@H](OC)C2)CC(=O)[C@H](C)/C=C(\C)[C@@H](O)[C@@H](OC)C(=O)[C@H](C)C[C@H](C)/C=C/C=C/C=C/1C [Everolimus] + CC(=O)Nc1cccc(-n2c(=O)n(C3CC3)c(=O)c3c(Nc4ccc(I)cc4F)n(C)c(=O)c(C)c32)c1 [Trametinib] (partner 0.02 µM)
Procedure, shortened: (§1)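 The day after seeding in 1536-well plates, lung cancer cell lines were treated by pin tool with a single drug, or with a fixed anchor-drug dose together with five library-drug doses (not always all listed) in √10 steps. After 5 days, a combined fix-and-stain solution (final 0.05% Triton X-100, 1% formaldehyde, 1 ug/ml Hoechst) was added. Nuclei counted on 4× images gave relative viability as treated counts over vehicle counts, reported as the median of duplicate plates.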

Everolimus + Lapatinib = compound: CO[C@H]1C[C@@H]2CC[C@@H](C)[C@@](O)(O2)C(=O)C(=O)N2CCCC[C@H]2C(=O)O[C@H]([C@H](C)C[C@@H]2CC[C@@H](OCCO)[C@H](OC)C2)CC(=O)[C@H](C)/C=C(\C)[C@@H](O)[C@@H](OC)C(=O)[C@H](C)C[C@H](C)/C=C/C=C/C=C/1C [Everolimus] + CS(=O)(=O)CCNCc1ccc(-c2ccc3ncnc(Nc4ccc(OCc5cccc(F)c5)c(Cl)c4)c3c2)o1 [Lapatinib] (partner 2 µM)
Procedure, shortened: as §1

Everolimus + Phenformin = compound: CO[C@H]1C[C@@H]2CC[C@@H](C)[C@@](O)(O2)C(=O)C(=O)N2CCCC[C@H]2C(=O)O[C@H]([C@H](C)C[C@@H]2CC[C@@H](OCCO)[C@H](OC)C2)CC(=O)[C@H](C)/C=C(\C)[C@@H](O)[C@@H](OC)C(=O)[C@H](C)C[C@H](C)/C=C/C=C/C=C/1C [Everolimus] + N=C(N)NC(=N)NCCc1ccccc1 [Phenformin] (partner 250 µM)
Procedure, shortened: as §1

Everolimus + Olaparib = compound: CO[C@H]1C[C@@H]2CC[C@@H](C)[C@@](O)(O2)C(=O)C(=O)N2CCCC[C@H]2C(=O)O[C@H]([C@H](C)C[C@@H]2CC[C@@H](OCCO)[C@H](OC)C2)CC(=O)[C@H](C)/C=C(\C)[C@@H](O)[C@@H](OC)C(=O)[C@H](C)C[C@H](C)/C=C/C=C/C=C/1C [Everolimus] + O=C(c1cc(Cc2n[nH]c(=O)c3ccccc23)ccc1F)N1CCN(C(=O)C2CC2)CC1 [Olaparib] (partner 8 µM)
Procedure, shortened: as §1

| Cell Line | relative viability (Everolimus + Trametinib; first compound 0.01 µM) | relative viability (Everolimus + Trametinib; first compound 0.03162 µM) | relative viability (Everolimus + Trametinib; first compound 0.1 µM) | relative viability (Everolimus + Trametinib; first compound 0.3162 µM) | relative viability (Everolimus + Trametinib; first compound 1 µM) | relative viability (Everolimus + Lapatinib; first compound 0.01 µM) | relative viability (Everolimus + Lapatinib; first compound 0.03162 µM) | relative viability (Everolimus + Lapatinib; first compound 0.1 µM) | relative viability (Everolimus + Lapatinib; first compound 0.3162 µM) | relative viability (Everolimus + Lapatinib; first compound 1 µM) | relative viability (Everolimus + Phenformin; first compound 0.01 µM) | relative viability (Everolimus + Phenformin; first compound 0.03162 µM) | relative viability (Everolimus + Phenformin; first compound 0.1 µM) | relative viability (Everolimus + Phenformin; first compound 0.3162 µM) | relative viability (Everolimus + Phenformin; first compound 1 µM) | relative viability (Everolimus + Olaparib; first compound 0.01 µM) | relative viability (Everolimus + Olaparib; first compound 0.03162 µM) | relative viability (Everolimus + Olaparib; first compound 0.1 µM) | relative viability (Everolimus + Olaparib; first compound 0.3162 µM) | relative viability (Everolimus + Olaparib; first compound 1 µM) |
| --- | --- | --- | --- | --- | --- | --- | --- | --- | --- | --- | --- | --- | --- | --- | --- | --- | --- | --- | --- | --- |
| NCI-H1915 | 0.233 | 0.197 | 0.204 | 0.228 | 0.191 | 0.903 | 0.904 | 0.877 | 0.826 | 0.88 | 0.384 | 0.372 | 0.34 | 0.349 | 0.432 | 0.282 | 0.31 | 0.285 | 0.26 | 0.288 |
| NCI-H3122 | 0.167 | 0.147 | 0.172 | 0.141 | 0.11 | 1.09 | 1.16 | 1.06 | 1.07 | 0.951 | 0.368 | 0.45 | 0.391 | 0.37 | 0.402 | 0.638 | 0.643 | 0.497 | 0.476 | 0.579 |
| NCI-H1651 | 0.774 | 0.657 | 0.605 | 0.592 | 0.538 | 0.537 | 0.391 | 0.497 | 0.533 | 0.521 | 0.284 | 0.297 | 0.255 | 0.265 | 0.4 | 0.185 | 0.201 | 0.254 | 0.229 | 0.211 |
| NCI-H838 | 0.288 | 0.267 | 0.278 | 0.263 | 0.28 | 0.517 | 0.535 | 0.48 | 0.439 | 0.625 | 0.331 | 0.355 | 0.267 | 0.313 | 0.363 | 0.493 | 0.484 | 0.494 | 0.479 | 0.403 |
| NCI-H596 | 0.613 | 0.507 | 0.497 | 0.525 | 0.575 | 0.715 | 0.677 | 0.545 | 0.676 | 0.677 | 0.494 | 0.505 | 0.396 | 0.513 | 0.554 | 0.642 | 0.475 | 0.618 | 0.515 | 0.506 |
| SK-LU-1 | 0.39 | 0.355 | 0.298 | 0.345 | 0.317 | 0.638 | 0.624 | 0.576 | 0.49 | 0.61 | 0.306 | 0.323 | 0.291 | 0.369 | 0.342 | 0.423 | 0.378 | 0.301 | 0.389 | 0.362 |
| NCI-H650 | 1 | 0.687 | 0.664 | 0.593 | 0.497 | 0.652 | – | 0.716 | 0.598 | 0.479 | 0.423 | – | 0.431 | 0.364 | 0.294 | 0.397 | 0.37 | 0.373 | 0.284 | 0.307 |
| SK-MES-1 | 0.38 | 0.412 | 0.372 | 0.397 | 0.277 | 0.358 | 0.384 | 0.326 | 0.384 | 0.325 | 0.55 | 0.583 | 0.574 | 0.552 | 0.545 | 0.539 | 0.468 | 0.512 | 0.537 | 0.421 |
